Experimental data: ChEMBL document CHEMBL1133316, “Synthesis and antiviral activity of acyclovir-5'-(phenyl methoxy alaninyl) phosphate as a possible membrane-soluble nucleotide prodrug” (Bioorg Med Chem Lett, 2000)

Assays:
MRC5 [1] = test: Compound was tested for inhibition against varicella zoster virus(VZV) infected MRC5 cells; conditions: Homo sapiens
MRC5 [2] = test: Compound was tested for inhibition against human cytomegalovirus (HCMV) in MRC-5 cells; type: functional, cell-based
Vero [3] = test: Compound was tested for cytotoxic activity uninfected vero cells; type: functional; conditions: Chlorocebus sabaeus
Vero [4] = test: Compound was tested for inhibition against herpes simplex virus (HSV-2) infected vero cells; type: functional, cell-based; conditions: Chlorocebus sabaeus
MRC5 [5] = test: Compound was tested for inhibition against Varicella zoster virus(VZV) infected MRC5 cells; type: functional, cell-based; conditions: Homo sapiens

SMILES | EC50 (MRC5 [1]) [µM] | EC50 (MRC5 [2]) [µM] | CC50 (Vero [3]) [µM] | EC50 (Vero [4]) [µM] | EC50 (MRC5 [5]) [µM]
Nc1nc2c(ncn2COCCO)c(=O)[nH]1 [ACYCLOVIR] | 5 | 50 | > 5 | 3 | –
COC(=O)C(C)NP(=O)(OCCOCn1cnc2c(O)nc(N)nc21)Oc1ccccc1 (stereo not drawn) | – | 12 | > 5 | > 100 | 16
